Reference: patent US12491182B2, “Polymorphs of triazole antifungal compound PC945” (Pulmocide Limited, priority 2019, dated 2025)
Marks after values point to notes of the source that are not given here.

Key:
[1] = Equilibration of Forms 1 and 2, singularly and as mixtures, in MEK and THF alone and with 5% water; type: physicochemical; details: 5-10 °C, both equilibration temperatures
Source text: The influence of the initial polymorphic composition on the fate of samples was investigated by equilibration of the either the single polymorphs or an equal mixture of both in anhydrous MEK and THF as well as in the same solvents doped with 5% water.
The results obtained (Table 13) reveal that in anhydrous media the two polymorphs retain their structural integrity, if present singularly (Table 13, Entries 1, 2, 4 and 5). […] (Table 13, Entry 4) which may be attributable to the presence of traces of moisture in a highly hygroscopic solvent.
The results observed when 5% water was admixed to the two solvents indicate that the predominance of the two forms reversed under these conditions, taking kinetic factors into account. In aqueous MEK (5% water) the single polymorphs were again unchanged for the duration of the experiment (Table 13, Entries 7 and 8). In contrast, the binary polymorphic mixture converted into Form 1 in this medium (Table 13, Entry 9). In aqueous THF (5% water) the dominance of Form 1 as the most preferred polymorph was especially evident. In this environment the suspension of Form 1 remained unchanged (Table 13, Entry 10), consistent with the outcome observed for aq MEK under the same conditions.
However, in THF doped with 5% water, both the suspension comprising the binary mixture, as well as that composed of the Form 2 polymorph alone, were transformed into suspensions containing only Form 1 (Table 13, Entries 11 and 12).

[2] = Fate of Form 2 slurried in THF and THF/water mixtures, XRPD; type: physicochemical
Protocol: To investigate the generality of this unforeseen transformation a similar experiment was carried out in THF and in THF/water mixtures. […] At 25° C. those mixtures comprising 10% and 20% water returned Form 1 after 4 and 24 hours respectively (Table 10, Entries 2 and 3).

Cc1cc(N2CCN(c3ccc(C(=O)Nc4ccc(F)cc4)cc3)CC2)ccc1OC[C@@H]1CO[C@@](Cn2cncn2)(c2ccc(F)cc2F)C1 [Form 1, 4-(4-(4-(((3R,5R)-5-((1H-1,2,4-triazol-1-yl)methyl)-5-(2,4-difluorophenyl)tetrahydrofuran-3-yl)methoxy)-3-methylphenyl)piperazin-1-yl)-N-(4-fluorophenyl)benzamide]
Form by XRPD Post Equilibration ([1]; MEK (anhydrous)): 1
Form by XRPD Post Equilibration ([1]; MEK/5% Water): 1
Form by XRPD Post Equilibration ([1]; THF (anhydrous), Form 1 input: some evidence of Form 2 at 10 °C): 1^b
Form by XRPD Post Equilibration ([1]; THF/5% Water): 1

Cc1cc(N2CCN(c3ccc(C(=O)Nc4ccc(F)cc4)cc3)CC2)ccc1OC[C@@H]1CO[C@@](Cn2cncn2)(c2ccc(F)cc2F)C1 [Form 2, 4-(4-(4-(((3R,5R)-5-((1H-1,2,4-triazol-1-yl)methyl)-5-(2,4-difluorophenyl)tetrahydrofuran-3-yl)methoxy)-3-methylphenyl)piperazin-1-yl)-N-(4-fluorophenyl)benzamide]
Polymorphic Form by XRPD ([2]; THF, water 0 vol %, 25 °C, 1 hr): 2
Polymorphic Form by XRPD ([2]; THF, water 0 vol %, 25 °C, 4 hr): 2
Polymorphic Form by XRPD ([2]; THF, water 0 vol %, 50 °C, 1 hr): 2
Polymorphic Form by XRPD ([2]; THF, water 0 vol %, 50 °C, 4 hr): 2
Polymorphic Form by XRPD ([2]; THF/water, water 10 vol %, 25 °C, 1 hr): 2
Polymorphic Form by XRPD ([2]; THF/water, water 10 vol %, 25 °C, 4 hr): 1
Polymorphic Form by XRPD ([2]; THF/water, water 10 vol %, 25 °C, 24 hr): 1
Polymorphic Form by XRPD ([2]; THF/water, water 10 vol %, 50 °C, 1 hr): 1
Polymorphic Form by XRPD ([2]; THF/water, water 10 vol %, 50 °C, 4 hr): 1
Polymorphic Form by XRPD ([2]; THF/water, water 10 vol %, 50 °C, 24 hr): 1
Polymorphic Form by XRPD ([2]; THF/water, water 20 vol %, 25 °C, 1 hr): 2
Polymorphic Form by XRPD ([2]; THF/water, water 20 vol %, 25 °C, 4 hr): 2
Polymorphic Form by XRPD ([2]; THF/water, water 20 vol %, 25 °C, 24 hr): 1
Polymorphic Form by XRPD ([2]; THF/water, water 20 vol %, 50 °C, 1 hr): 1
Polymorphic Form by XRPD ([2]; THF/water, water 20 vol %, 50 °C, 4 hr): 1
Polymorphic Form by XRPD ([2]; THF/water, water 20 vol %, 50 °C, 24 hr): 1
Polymorphic Form by XRPD ([2]; THF/water, water 40 vol %, 25 °C, 1 hr): 2
Polymorphic Form by XRPD ([2]; THF/water, water 40 vol %, 25 °C, 4 hr): 2
Polymorphic Form by XRPD ([2]; THF/water, water 40 vol %, 25 °C, 24 hr): 2
Polymorphic Form by XRPD ([2]; THF/water, water 40 vol %, 50 °C, 1 hr): 1
Polymorphic Form by XRPD ([2]; THF/water, water 40 vol %, 50 °C, 4 hr): 1
Polymorphic Form by XRPD ([2]; THF/water, water 40 vol %, 50 °C, 24 hr): 1
